This is an account of results in the NIST ThermoML archive (doi:10.1007/s10765-008-0511-0).

Numbers after ± are expanded uncertainties.

The conditions of the data set: Crystal; Heating/Cooling curves.

Take `O=C=O` [carbon dioxide]: the Triple point temperature was 216.52 ± 1 K.

Consider `[N-]=[N+]=O` [nitrous oxide], for which the Triple point temperature was 181.99 ± 1 K.

As for `FC(F)F` [trifluoromethane], the Triple point temperature is 118.02 ± 1 K.
